Results reported in patent US20220324835A1 (Nurix Therapeutics, Inc., priority 2018, published 2022).

Legend:
[1] = target: T1, Cbl-b (Homo sapiens, UniProt Q13191); assay: Cbl-b activity assay (Cbl-b inhibition assay), TR-FRET of Cbl-b interaction with UbcH5B-Ub; assay type: biochemical
How it was run: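 TR-FRET readout of Cbl-b binding to Bodipy-fluorescein N-terminally labeled Ub conjugated to UbcH5B C85K, measured with compound present. After compound incubation, 60 nM Src kinase with 1 mM ATP and 5 mM MgCl2 (final) was added for 1.5 h, then a further 1 h incubation; asterisked values used 50 mM NaCl buffer and 30 nM Src.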

[2] = target: T1, Cbl-b; assay: Cbl-b inhibition assay (Cbl-b activity assay, FRET, Biological Example 1; 100 mM NaCl, 60 nM Src kinase); assay type: biochemical; details: upper bound stated in text lists; read-out: IC50 values in the Cbl-b inhibition assay of Biological Example 1
How it was run: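 N-terminally biotinylated Avi-tagged Cbl-b was mixed with Src kinase, UbcH5B covalently conjugated to Bodipy-fluorescein ubiquitin, and streptavidin-terbium. Src phosphorylation lets Cbl-b bind UbcH5B-Ub, giving terbium-fluorescein FRET; inhibition is read as loss of FRET signal.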

[3] = target: Cbl-b (residues 36-427) (Homo sapiens, UniProt Q13191); assay: Cbl-b binding assay (SPR, Biacore T200); details: 20° C., 1:1 binding model
Chain of Cbl-b (residues 36-427) (Q13191 36-427): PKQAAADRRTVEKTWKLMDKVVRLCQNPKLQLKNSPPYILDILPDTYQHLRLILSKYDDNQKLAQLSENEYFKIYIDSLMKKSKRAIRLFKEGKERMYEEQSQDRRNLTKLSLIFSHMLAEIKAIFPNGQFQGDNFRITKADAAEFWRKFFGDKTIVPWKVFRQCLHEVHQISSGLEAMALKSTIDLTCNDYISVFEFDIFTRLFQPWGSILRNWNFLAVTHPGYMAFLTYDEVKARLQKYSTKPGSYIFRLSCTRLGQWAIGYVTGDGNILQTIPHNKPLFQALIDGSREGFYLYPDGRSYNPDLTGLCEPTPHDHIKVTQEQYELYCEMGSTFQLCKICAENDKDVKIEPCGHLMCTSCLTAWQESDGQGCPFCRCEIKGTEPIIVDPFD
How it was run: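 Affinities derived from global 1:1 steady-state or kinetic fits of double-referenced, solvent-corrected SPR data, 20 °C, NeutrAvidin-capture chip. Compound series (top 100 or 50 μM, 8–10 points) injected 50 s, 90–180 s dissociation. Asterisked values used 50 mM instead of 100 mM NaCl and 30 nM Src kinase.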

[4] = tested on: T-cell; assay: IL-2 secretion from T-cells stimulated with anti-CD3 antibody alone (Biological Example 2); assay type: cell-based, human; details: T-cell, fold change over baseline, primary human total T-cells, read-out: IL-2 secretion Anti-CD3 stimulation; for fold induction at 1 µM: 1 μM Cbl-b inhibitor; for fold induction at 8 µM: 8 μM Cbl-b inhibitor
[5] = assay buffer with 100 mM NaCl, 60 nM Src kinase, read-out: Cbl-b activity IC50

T1 sequence (Q13191 36-427): as above

In the case of `COc1cc(C(=O)Nc2cccc([C@H](C)Sc3nncn3C)c2)nc(C(F)(F)F)c1` [Compound 71, (S)-4-methoxy-N-(3-(1-((4-methyl-4H-1,2,4-triazol-3-yl)thio)ethyl)phenyl)-6-(trifluoromethyl)picolinamide], the IC50 [1, 5] is reported as 0.1 to 0.3 µM, the IC50 [2] is reported as no more than 500 nM and the Kd [3] is reported as 100 to 300 nM. For the same molecule, the fold induction at 1 µM [4] was 0.051 to 0.1 and the fold induction at 8 µM [4] was greater than 0.201.
With `C[C@H](Sc1nncn1C)c1cccc(NC(=O)c2ccnc(C(F)(F)F)n2)c1` [Compound 75, N-[3-[(1S)-1-[(4-methyl-1,2,4-triazol-3-yl)sulfanyl]ethyl]phenyl]-2-(trifluoromethyl)pyrimidine-4-carboxamide] the IC50 [1, 5] was 0.301 to 1 µM, the IC50 [2] was no more than 500 nM and the Kd [3] was 301 to 1000 nM. For the same molecule, the fold induction at 1 µM [4] was less than 0.05 and the fold induction at 8 µM [4] was 0.051 to 0.1.
Molecule `C[C@H](Sc1nncn1C)c1cccc(NC(=O)c2cncc(C(F)(F)F)n2)c1` [Compound 77, N-[3-[(1S)-1-[(4-methyl-1,2,4-triazol-3-yl)sulfanyl]ethyl]phenyl]-6-(trifluoromethyl)pyrazine-2-carboxamide] has an IC50 [1, 5] of 0.301 to 1 µM, an IC50 [2] of no more than 500 nM and a Kd [3] of 1000 to 3000 nM. It also gave a fold induction at 1 µM [4] of less than 0.05 and a fold induction at 8 µM [4] of less than 0.05.
`C[C@H](Sc1nncn1C)c1cccc(NC(=O)c2cc3c(Cl)cccc3[nH]2)c1` [Compound 78, 4-chloro-A-[3-[(LS)-1-[(4-methyl-1,2,4-triazol-3-yl)sulfanyl]ethyl]phenyl]-1H-indole-2-carboxamide] gave an IC50 [1, 5] of 0.1 to 0.3 µM, an IC50 [2] of no more than 500 nM and a Kd [3] of 100 to 300 nM. It also gave a fold induction at 1 µM [4] of less than 0.05 and a fold induction at 8 µM [4] greater than 0.201.
`C[C@H](Sc1nncn1C)c1cccc(NC(=O)c2cccc(S(C)(=O)=O)n2)c1` [Compound 80, (S)-N-(3-(1-((4-methyl-4H-1,2,4-triazol-3-yl)thio)ethyl)phenyl)-6-(methylsulfonyl)picolinamide] showed an IC50 [1, 5] of 1 to 3 µM, an IC50 [2] of no more than 10000 nM and a Kd [3] of 3000 to 10000 nM. The fold induction at 1 µM [4] was less than 0.05 and the fold induction at 8 µM [4] was less than 0.05.
`C[C@H](Sc1nncn1C)c1cccc(NC(=O)c2cccc(C(C)(F)F)n2)c1` [Compound 81, (S)-6-(1,1-difluoroethyl)-N-(3-(1-((4-methyl-4H-1,2,4-triazol-3-yl)thio)ethyl)phenyl)picolinamide] showed an IC50 [1, 5] of 0.1 to 0.3 µM, an IC50 [2] of no more than 500 nM and a Kd [3] of 301 to 1000 nM. The fold induction at 1 µM [4] was less than 0.05 and the fold induction at 8 µM [4] was 0.151 to 0.2.
Molecule `C[C@H](Sc1nncn1C)c1cccc(NC(=O)c2cc(C(C)(C)O)cc(C(F)(F)F)n2)c1` [Compound 85, 4-(1-hydroxy-1-methyl-ethyl)-N-[3-[(1S)-1-[(4-methyl-1,2,4-triazol-3-yl)sulfanyl]ethyl]phenyl]-6-(trifluoromethyl)pyridine-2-carboxamide] has an IC50 [1, 5] of 0.1 to 0.3 µM, an IC50 [2] of no more than 500 nM and a Kd [3] of 301 to 1000 nM. For the same molecule, the fold induction at 1 µM [4] was less than 0.05 and the fold induction at 8 µM [4] was less than 0.05.
`C[C@H](Sc1nncn1C)c1ccc(F)c(NC(=O)c2cccc(C(F)(F)F)n2)c1` [Compound 95a, (S)-N-(2-fluoro-5-(1-((4-methyl-4H-1,2,4-triazol-3-yl)thio)ethyl)phenyl)-6-(trifluoromethyl)picolinamide] gave an IC50 [1, 5] of 0.301 to 1 µM, an IC50 [2] of no more than 500 nM and a Kd [3] of 1000 to 3000 nM. It also gave a fold induction at 1 µM [4] of less than 0.05 and a fold induction at 8 µM [4] of 0.051 to 0.1.
`C[C@H](Sc1nnc[nH]1)c1cccc(NC(=O)c2cc3ccccc3cn2)c1` [Compound 98, (S)-N-(3-(1-((4H-1,2,4-triazol-3-yl)thio)ethyl)phenyl)isoquinoline-3-carboxamide] was tested, and the IC50 ([1]; * assay buffer containing 50 mM NaCl instead of 100 mM NaCl and 30 nM Src kinase instead of 60 nM, read-out: Cbl-b activity IC50 (μM)*) was 1 to 3 µM, the IC50 [1, 5] was 0.301 to 1 µM and the IC50 [2] was no more than 1000 nM. It also gave a Kd [3] of 3000 to 10000 nM, a fold induction at 1 µM [4] of 0.051 to 0.1 and a fold induction at 8 µM [4] of 0.051 to 0.1.
In the case of `Cc1cc(C(=O)Nc2cc([C@H](C)Sc3nncn3C)ccn2)nc(C(F)(F)F)c1` [Compound 103, (S)-4-methyl-N-(4-(1-((4-methyl-4H-1,2,4-triazol-3-yl)thio)ethyl)pyridin-2-yl)-6-(trifluoromethyl)picolinamide], the IC50 [1, 5] is reported as 0.301 to 1 µM, the IC50 [2] is reported as no more than 1000 nM and the Kd [3] is reported as 1000 to 3000 nM. It also gave a fold induction at 1 µM [4] of less than 0.05 and a fold induction at 8 µM [4] of 0.051 to 0.1.
`C[C@H](Sc1nncn1C)c1ccnc(NC(=O)c2cc(C3CC3)cc(C(F)(F)F)n2)c1` [Compound 104, (S)-4-cyclopropyl-N-(4-(1-((4-methyl-4H-1,2,4-triazol-3-yl)thio)ethyl)pyridin-2-yl)-6-(trifluoromethyl)picolinamide] showed an IC50 [1, 5] of 0.301 to 1 µM, an IC50 [2] of no more than 1000 nM and a Kd [3] of 1000 to 3000 nM. The fold induction at 1 µM [4] was less than 0.05 and the fold induction at 8 µM [4] was less than 0.05.
`C[C@H](Sc1nncn1C)c1ccnc(NC(=O)c2cc(Cl)cc(C(F)(F)F)n2)c1` [Compound 105, (S)-4-chloro-N-(4-(1-((4-methyl-4H-1,2,4-triazol-3-yl)thio)ethyl)pyridin-2-yl)-6-(trifluoromethyl)picolinamide] gave an IC50 [1, 5] of 0.301 to 1 µM, an IC50 [2] of no more than 1000 nM and a Kd [3] of 1000 to 3000 nM. For the same molecule, the fold induction at 1 µM [4] was less than 0.05 and the fold induction at 8 µM [4] was less than 0.05.
With `Cc1ccc(C(=O)Nc2cc([C@H](C)Sc3nncn3C)ccn2)nc1C1CC1` [Compound 113, (S)-6-cyclopropyl-5-methyl-N-(4-(1-((4-methyl-4H-1,2,4-triazol-3-yl)thio)ethyl)pyridin-2-yl)picolinamide] the IC50 [1, 5] was 0.301 to 1 µM, the IC50 [2] was no more than 1000 nM and the Kd [3] was 1000 to 3000 nM. For the same molecule, the fold induction at 1 µM [4] was less than 0.05 and the fold induction at 8 µM [4] was less than 0.05.
`C[C@H](Sc1nncn1C)c1ccnc(NC(=O)c2cc3c(C(F)(F)F)cccc3[nH]2)c1` [Compound 120, N-[4-[(1S)-1-[(4-methyl-1,2,4-triazol-3-yl)sulfanyl]ethyl]-2-pyridyl]-4-(trifluoromethyl)-1H-indole-2-carboxamide] gave an IC50 [1, 5] of 0.1 to 0.3 µM, an IC50 [2] of no more than 500 nM and a Kd [3] of 301 to 1000 nM. The fold induction at 1 µM [4] was less than 0.05 and the fold induction at 8 µM [4] was less than 0.05.
`Cc1nc2cc([C@H](C)Sc3nncn3C)cc(NC(=O)c3cccc(C(F)(F)F)n3)c2o1` [Compound 130a, (S)-N-(2-methyl-5-(1-((4-methyl-4H-1,2,4-triazol-3-yl)thio)ethyl)benzo[d]oxazol-7-yl)-6-(trifluoromethyl)picolinamide] showed an IC50 [1, 5] of 0.301 to 1 µM, an IC50 [2] of no more than 1000 nM and a Kd [3] of 301 to 1000 nM. For the same molecule, the fold induction at 1 µM [4] was less than 0.05 and the fold induction at 8 µM [4] was greater than 0.201.
In the case of `C[C@H](Sc1nncn1C)c1cccc(NC(=O)c2cc(C(=O)N3CC[C@H](O)C3)ccn2)c1` [Compound 140, 4-[[(3S)-3-hydroxypyrrolidin-1-yl]carbonyl]-N-[3-[(1S)-1-[(4-methyl-4H-1,2,4-triazol-3-yl)sulfanyl]ethyl]phenyl]pyridine-2-carboxamide], the IC50 [1, 5] is reported as 0.1 to 0.3 µM, the IC50 [2] is reported as no more than 500 nM and the Kd [3] is reported as 301 to 1000 nM. The fold induction at 1 µM [4] was less than 0.05 and the fold induction at 8 µM [4] was less than 0.05.
Work on `C[C@H](Sc1nncn1C)c1cccc(NC(=O)c2cc(C(=O)N3CC(O)C3)ccn2)c1` [Compound 148, (S)-4-(3-hydroxyazetidine-1-carbonyl)-N-(3-(1-((4-methyl-4H-1,2,4-triazol-3-yl)thio)ethyl)phenyl)picolinamide] yielded an IC50 [1, 5] of 0.301 to 1 µM, an IC50 [2] of no more than 500 nM and a Kd [3] of 1000 to 3000 nM. For the same molecule, the fold induction at 1 µM [4] was less than 0.05 and the fold induction at 8 µM [4] was less than 0.05.
`C[C@H](Sc1nncn1C)c1cccc(NC(=O)c2cc(C(=O)N3C[C@H](O)C[C@@H]3C)ccn2)c1` [Compound 151, 4-((2S,4R)-4-hydroxy-2-methylpyrrolidine-1-carbonyl)-N-(3-((S)-1-((4-methyl-4H-1,2,4-triazol-3-yl)thio)ethyl)phenyl)picolinamide] was tested, and the IC50 [1, 5] was 0.301 to 1 µM, the IC50 [2] was no more than 1000 nM and the Kd [3] was 1000 to 3000 nM. The fold induction at 1 µM [4] was less than 0.05 and the fold induction at 8 µM [4] was less than 0.05.
Molecule `C[C@H](Sc1nncn1C)c1cccc(N2Cc3c(cccc3C(F)(F)F)C2=O)c1` [Compound 166a, (S)-2-(3-(1-((4-methyl-4H-1,2,4-triazol-3-yl)thio)ethyl)phenyl)-4-(trifluoromethyl)isoindolin-1-one] has an IC50 [1, 5] of 0.1 to 0.3 µM, an IC50 [2] of no more than 500 nM and a Kd [3] of 301 to 1000 nM. The fold induction at 1 µM [4] was less than 0.05 and the fold induction at 8 µM [4] was less than 0.05.
Work on `C[C@H](Sc1nncn1C)c1cccc(N2Cc3c(ccnc3Cl)C2=O)c1` [Compound 167, 4-chloro-2-[3-[(1S)-1-[(4-methyl-1,2,4-triazol-3-yl)sulfanyl]ethyl]phenyl]-3H-pyrrolo[3,4-c]pyridin-1-one] yielded an IC50 [1, 5] of 0.301 to 1 µM, an IC50 [2] of no more than 500 nM and a Kd [3] of 301 to 1000 nM. For the same molecule, the fold induction at 1 µM [4] was less than 0.05 and the fold induction at 8 µM [4] was 0.101 to 0.15.
With `CC(Sc1nncn1C)c1cc(F)cc(N2Cc3c(cccc3C(F)(F)F)C2=O)c1` [Compound 168, 2-[3-fluoro-5-[(1R)-1-[(4-methyl-1,2,4-triazol-3-yl)sulfanyl]ethyl]phenyl]-4-(trifluoromethyl)isoindolin-1-one] the IC50 [1, 5] was 0.301 to 1 µM, the IC50 [2] was no more than 500 nM and the Kd [3] was 1000 to 3000 nM. For the same molecule, the fold induction at 1 µM [4] was less than 0.05 and the fold induction at 8 µM [4] was 0.051 to 0.1.
